How the values were obtained:
[1] = system: Wheat scab (Microdochium nivale); experiment: Test of inhibition of growth of wheat scab mycelium; format: cell-based; conditions: read-out: inhibition rate (mycelium growth length)
[2] = system: powdery mildew (Sphaerotheca cucurbitae); experiment: Test of effect on cucumber powdery mildew, vaporization properties; format: in vivo; conditions: 100 ppm drug solution dropped on aluminum foil on cucumber first leaf; seven days after inoculation; 2 cm or more = vaporization effect
Protocol: A 10-mm square piece of aluminum foil was attached with a double-sided tape on the first leaf of cucumber planted in a 7.5-cm-diameter pot. […] The drug solution was added dropwise in […] using a micropipette. After air-drying the drug solution, the leaf was inoculated by spraying with a spore suspension of powdery mildew (Sphaerotheca cucurbitae). Seven days after inoculation, the diameter of a disease development inhibition circle on the cucumber first leaf was measured. The appearance of necrotic lesions on the leaf was examined in comparison with the untreated plot. There was judged to be a vaporization effect when an inhibition circle having a diameter of 2 cm or more was formed around the aluminum foil.

[3] = system: wheat powdery mildew (Erysiphe graminis); experiment: Test of preventive effect on wheat powdery mildew; conditions: wheat seedlings
[4] = treatment concentration 100 ppm

Molecule	Diameter of disease development inhibition circle [2] [cm]	further results
Cc1cc(N=CN(C)C)c(C)cc1C#CC(C)(C)C [Compound 52, N,N-dimethyl-N′-[2,5-dimethyl-4-(3,3-dimethyl-1-butynyl)phenyl]formamidine]	–	inhibition at 10 ppm [1]: 100%
Cc1cc(N=CN(C)C)c(C)cc1C#C[Si](C)(C)C [Compound 59, N,N-dimethyl-N′-[2,5-dimethyl-4-(2-trimethylsilyl-1-ethynyl)phenyl]formamidine]	–	inhibition at 10 ppm [1]: 100%
CCN(C)C=Nc1ccc(C#CC(C)(C)C)cc1C [Compound 66, N-ethyl-N-methyl-N′-[2-methyl-4-(3,3-dimethyl-1-butynyl)phenyl]formamidine]	–	inhibition at 10 ppm [1]: 100%
CCN(C)C=Nc1ccc(C#C[Si](CC)(CC)CC)cc1C [Compound 69]	2.75	–
CCN(C)C=Nc1cc(C)c(C#CC(C)(C)C)cc1Cl [Compound 85]	6.0	–
CCN(C)C=Nc1cc(Cl)c(C#CC(C)(C)C)cc1C [Compound 91]	6.0	–
CCN(C)C=Nc1cc(Cl)c(C#C[Si](C)(C)C)cc1C [Compound 93]	6.0	–
CCN(C)C=Nc1cc(C)c(C#CC(C)(C)C)cc1C [Compound 98]	9.5	–
CCN(C)C=Nc1cc(C)c(C#C[Si](C)(C)C)cc1C [Compound 123, N-ethyl-N-methyl-N′-[2,5-dimethyl-4-(2-trimethylsilyl-1-ethynyl)phenyl]formamidine]	9.5	Preventive value ([3]; treatment concentration 10 ppm): 100; Preventive value ([3]; treatment concentration 20 ppm): 100; Preventive value ([3]; treatment concentration 40 ppm): 100; Preventive value [3, 4]: 100; inhibition at 10 ppm [1]: 100%
CCN(C)C=Nc1cc(C)c(C#C[Si](CC)(CC)CC)cc1C [Compound 124]	3.75	–
CCN(C)C=Nc1cc(C)c(C#C[Si](C)(C)C(C)(C)C)cc1C [Compound 126]	6.5	–
CCN(C)C=Nc1cc(C)c(C#CC[Si](C)(C)C)cc1C [Compound 127]	2.0	–
Cc1cc(N=CN2CCCCC2)c(C)cc1C#C[Si](C)(C)C [Compound 147]	2.5	–
CCN(C)C=Nc1cc(F)c(C#C[Si](C)(C)C)cc1C [Compound 158]	3.75	–
CCN(C)C=Nc1cc(C)c(C#CC(C)(C)O[Si](C)(C)C)cc1C [Compound 161]	6.0	–
CCN(C)C=Nc1cc(C)c(C#C[Si](C)(C)C)cc1C.Cl [Compound 162, N-ethyl-N-methyl-N′-[2,5-dimethyl-4-(2-trimethylsilyl-1-ethynyl)phenyl]formamidine hydrochloride]	8.0	–
CCN(C)C=Nc1cc(C)c(C#C[Si](C)(C)C(C)(C)C)cc1C.Cl [Compound 163]	8.0	–
Cc1cc(N=CN(C)C(C)C)c(C)cc1C#C[Si](C)(C)C(C)(C)C [Compound 171]	7.0	–
CCN(C)C=Nc1cc(Cl)c(C#CC(C)(C)C)cc1C.Cl [Compound 172]	7.0	–
CC1(C)[C@H]2CC[C@]1(CS(=O)(=O)O)C(=O)C2.CCN(C)C=Nc1cc(C)c(C#C[Si](C)(C)C)cc1C [Compound 175]	7.0	–
CCN(C)C=Nc1cc(F)c(C#C[Si](C)(C)C)cc1C.Cl [Compound 176]	7.0	–
CCN(C)/C=N/c1ccc(-c2ccc(C(C)(C)C)cc2)cc1C [Reference Compound A]	0	Preventive value ([3]; treatment concentration 10 ppm): 10; Preventive value ([3]; treatment concentration 20 ppm): 20; Preventive value ([3]; treatment concentration 40 ppm): 70; Preventive value [3, 4]: 100
CCN(C)/C=N/c1cc(C)c(-c2ccc(C(C)(C)C)cc2)cc1C [Reference Compound B]	0	Preventive value ([3]; treatment concentration 10 ppm): 40; Preventive value ([3]; treatment concentration 20 ppm): 70; Preventive value ([3]; treatment concentration 40 ppm): 70; Preventive value [3, 4]: 95
N-ethyl-N-methyl-N′-[2,5-dimethyl-4-(2-trimethylsilyl-1-ethynyl)phenyl]formamidine (+)-camphorsulfonate [Compound 174]	7.0	–

— US8785649B2, “Ethynylphenylamidine compound or salt thereof, method for producing same, and fungicide for agricultural and horticultural use” (priority 2010, dated 2014)
